Experiments:
Assay in all cases: biochemical
Format in all cases: biochemical
[1] = molecular target: T1, 363 human kinases (including Aurora A/B/C) (Homo sapiens, UniProt P52333); conditions: JAK3; for remaining activity at 0.1 µM: 100 nM; for remaining activity at 0.1 µM / remaining activity at 0.5 µM: read-out: % Enzyme Activity (relative to DMSO controls)
T1 sequence (P52333 1-1124): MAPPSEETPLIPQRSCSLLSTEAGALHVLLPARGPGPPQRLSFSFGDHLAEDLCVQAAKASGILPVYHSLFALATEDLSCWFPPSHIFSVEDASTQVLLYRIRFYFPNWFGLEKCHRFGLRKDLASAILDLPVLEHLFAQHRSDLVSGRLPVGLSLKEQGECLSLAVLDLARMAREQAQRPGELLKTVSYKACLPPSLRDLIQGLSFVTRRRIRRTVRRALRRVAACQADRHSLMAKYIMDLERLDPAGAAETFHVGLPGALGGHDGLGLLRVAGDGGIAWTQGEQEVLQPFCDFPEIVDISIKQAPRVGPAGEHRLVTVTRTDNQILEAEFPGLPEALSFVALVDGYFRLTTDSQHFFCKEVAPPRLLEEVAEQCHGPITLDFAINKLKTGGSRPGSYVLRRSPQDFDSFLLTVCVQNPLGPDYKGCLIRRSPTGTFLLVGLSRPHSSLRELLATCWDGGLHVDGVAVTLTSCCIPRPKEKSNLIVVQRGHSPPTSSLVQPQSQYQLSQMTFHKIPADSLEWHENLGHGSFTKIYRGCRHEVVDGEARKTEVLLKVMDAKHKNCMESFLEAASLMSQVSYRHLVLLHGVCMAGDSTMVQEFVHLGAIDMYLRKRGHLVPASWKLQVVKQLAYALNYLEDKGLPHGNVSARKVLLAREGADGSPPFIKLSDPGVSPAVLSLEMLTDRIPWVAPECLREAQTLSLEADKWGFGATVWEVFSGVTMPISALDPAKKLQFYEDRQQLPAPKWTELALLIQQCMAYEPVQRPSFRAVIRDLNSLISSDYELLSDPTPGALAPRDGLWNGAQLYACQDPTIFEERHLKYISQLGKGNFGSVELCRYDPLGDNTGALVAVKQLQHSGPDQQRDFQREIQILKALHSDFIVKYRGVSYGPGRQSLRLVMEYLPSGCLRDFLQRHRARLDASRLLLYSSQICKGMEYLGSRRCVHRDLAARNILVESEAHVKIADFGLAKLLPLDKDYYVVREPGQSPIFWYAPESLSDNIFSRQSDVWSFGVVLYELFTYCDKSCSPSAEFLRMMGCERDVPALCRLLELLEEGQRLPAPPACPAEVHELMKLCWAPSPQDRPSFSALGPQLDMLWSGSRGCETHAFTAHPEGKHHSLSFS
Description: (§1) However, the Aurora A/B selectivity ratios derived from our in vitro and in vivo data can be compared to prioritize inhibitors.

[2] = molecular target: T2, 363 human kinases (including Aurora A/B/C) (Homo sapiens, UniProt P52564); conditions: MKK6; for remaining activity at 0.1 µM: 100 nM; for remaining activity at 0.1 µM / remaining activity at 0.5 µM: read-out: % Enzyme Activity (relative to DMSO controls)
T2 sequence (P52564 1-334): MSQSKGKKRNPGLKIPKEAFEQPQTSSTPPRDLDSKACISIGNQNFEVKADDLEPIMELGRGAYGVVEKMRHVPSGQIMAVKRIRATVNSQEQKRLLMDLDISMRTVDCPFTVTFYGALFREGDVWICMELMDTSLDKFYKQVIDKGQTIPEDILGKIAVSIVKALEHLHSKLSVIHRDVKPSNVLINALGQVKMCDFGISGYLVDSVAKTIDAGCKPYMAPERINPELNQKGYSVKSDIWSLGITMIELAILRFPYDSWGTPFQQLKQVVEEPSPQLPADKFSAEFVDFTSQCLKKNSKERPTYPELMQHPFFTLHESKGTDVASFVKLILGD
Description: as §1

[3] = molecular target: 363 human kinases (including Aurora A/B/C) (Homo sapiens, UniProt P54756); conditions: EPHA5, [ATP] 30 µM; for remaining activity at 0.1 µM: 100 nM; for remaining activity at 0.1 µM / remaining activity at 0.5 µM: read-out: % Enzyme Activity (relative to DMSO controls)
363 human kinases (including Aurora A/B/C) (Homo sapiens, UniProt P54756), sequence (P54756 25-1037): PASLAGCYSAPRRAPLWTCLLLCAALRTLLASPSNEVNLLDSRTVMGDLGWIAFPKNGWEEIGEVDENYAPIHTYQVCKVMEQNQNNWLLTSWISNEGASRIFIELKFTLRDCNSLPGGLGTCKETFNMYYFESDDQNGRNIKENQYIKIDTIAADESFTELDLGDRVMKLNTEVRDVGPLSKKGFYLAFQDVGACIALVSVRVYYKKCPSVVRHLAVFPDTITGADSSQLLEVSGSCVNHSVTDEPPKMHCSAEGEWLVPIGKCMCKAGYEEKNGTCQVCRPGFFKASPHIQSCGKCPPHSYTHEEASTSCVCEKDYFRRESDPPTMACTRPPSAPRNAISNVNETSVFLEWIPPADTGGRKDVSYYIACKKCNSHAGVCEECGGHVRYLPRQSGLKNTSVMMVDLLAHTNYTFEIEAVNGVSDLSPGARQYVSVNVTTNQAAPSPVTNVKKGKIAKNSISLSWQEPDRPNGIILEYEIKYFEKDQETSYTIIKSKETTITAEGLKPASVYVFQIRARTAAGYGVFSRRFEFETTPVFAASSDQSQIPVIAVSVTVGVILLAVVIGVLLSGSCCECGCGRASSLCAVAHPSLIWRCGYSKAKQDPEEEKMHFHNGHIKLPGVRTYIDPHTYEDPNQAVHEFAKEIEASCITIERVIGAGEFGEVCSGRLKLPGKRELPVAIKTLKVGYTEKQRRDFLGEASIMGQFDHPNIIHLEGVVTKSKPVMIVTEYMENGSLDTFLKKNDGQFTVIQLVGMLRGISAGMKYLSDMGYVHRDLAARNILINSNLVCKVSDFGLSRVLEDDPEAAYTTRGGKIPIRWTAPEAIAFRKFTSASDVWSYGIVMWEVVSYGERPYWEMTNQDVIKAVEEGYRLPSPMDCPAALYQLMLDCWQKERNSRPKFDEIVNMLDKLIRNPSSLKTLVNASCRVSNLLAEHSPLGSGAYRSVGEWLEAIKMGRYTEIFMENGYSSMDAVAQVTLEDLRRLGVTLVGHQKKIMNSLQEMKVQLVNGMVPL
Description: as §1

[4] = molecular target: 363 human kinases (including Aurora A/B/C) (Homo sapiens, UniProt Q07002); conditions: CDK18/cyclin Y (PCTK3), [ATP] 50 µM; for remaining activity at 0.1 µM: 100 nM; for remaining activity at 0.1 µM / remaining activity at 0.5 µM: read-out: % Enzyme Activity (relative to DMSO controls)
363 human kinases (including Aurora A/B/C) (Homo sapiens, UniProt Q07002), sequence (Q07002 whole entry): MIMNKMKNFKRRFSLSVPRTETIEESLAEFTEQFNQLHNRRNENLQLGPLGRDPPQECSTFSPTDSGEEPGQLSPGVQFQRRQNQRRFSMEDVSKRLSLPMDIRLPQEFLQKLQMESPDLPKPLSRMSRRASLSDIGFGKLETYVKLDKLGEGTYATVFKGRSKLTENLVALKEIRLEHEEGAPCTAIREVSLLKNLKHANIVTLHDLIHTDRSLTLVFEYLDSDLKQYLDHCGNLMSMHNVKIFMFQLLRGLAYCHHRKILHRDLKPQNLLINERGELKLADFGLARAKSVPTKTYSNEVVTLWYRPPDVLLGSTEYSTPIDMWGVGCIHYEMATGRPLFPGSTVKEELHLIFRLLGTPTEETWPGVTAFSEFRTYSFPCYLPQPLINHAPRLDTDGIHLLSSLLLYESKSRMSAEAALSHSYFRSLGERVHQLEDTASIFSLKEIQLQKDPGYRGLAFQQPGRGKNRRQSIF
Description: as §1

[5] = molecular target: T3, 363 human kinases (including Aurora A/B/C) (Homo sapiens, UniProt Q8N752); conditions: CK1a1L, [ATP] 30 µM; for remaining activity at 0.1 µM: 100 nM; for remaining activity at 0.1 µM / remaining activity at 0.5 µM: read-out: % Enzyme Activity (relative to DMSO controls)
T3 sequence (Q8N752 1-337): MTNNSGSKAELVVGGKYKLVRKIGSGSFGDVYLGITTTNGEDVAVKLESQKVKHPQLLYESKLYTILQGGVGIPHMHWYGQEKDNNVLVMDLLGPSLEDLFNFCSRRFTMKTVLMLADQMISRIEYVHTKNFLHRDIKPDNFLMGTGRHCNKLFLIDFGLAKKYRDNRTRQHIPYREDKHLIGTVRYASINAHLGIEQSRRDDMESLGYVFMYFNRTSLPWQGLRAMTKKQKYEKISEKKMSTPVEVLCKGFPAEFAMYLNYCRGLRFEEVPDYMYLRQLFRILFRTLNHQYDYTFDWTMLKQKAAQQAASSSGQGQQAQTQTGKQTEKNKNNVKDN
Description: as §1

[6] = molecular target: 363 human kinases (including Aurora A/B/C) (Homo sapiens, UniProt Q9P0L2); conditions: MARK1; for remaining activity at 0.1 µM: 100 nM; for remaining activity at 0.1 µM / remaining activity at 0.5 µM: read-out: % Enzyme Activity (relative to DMSO controls)
363 human kinases (including Aurora A/B/C) (Homo sapiens, UniProt Q9P0L2), sequence (Q9P0L2 whole entry): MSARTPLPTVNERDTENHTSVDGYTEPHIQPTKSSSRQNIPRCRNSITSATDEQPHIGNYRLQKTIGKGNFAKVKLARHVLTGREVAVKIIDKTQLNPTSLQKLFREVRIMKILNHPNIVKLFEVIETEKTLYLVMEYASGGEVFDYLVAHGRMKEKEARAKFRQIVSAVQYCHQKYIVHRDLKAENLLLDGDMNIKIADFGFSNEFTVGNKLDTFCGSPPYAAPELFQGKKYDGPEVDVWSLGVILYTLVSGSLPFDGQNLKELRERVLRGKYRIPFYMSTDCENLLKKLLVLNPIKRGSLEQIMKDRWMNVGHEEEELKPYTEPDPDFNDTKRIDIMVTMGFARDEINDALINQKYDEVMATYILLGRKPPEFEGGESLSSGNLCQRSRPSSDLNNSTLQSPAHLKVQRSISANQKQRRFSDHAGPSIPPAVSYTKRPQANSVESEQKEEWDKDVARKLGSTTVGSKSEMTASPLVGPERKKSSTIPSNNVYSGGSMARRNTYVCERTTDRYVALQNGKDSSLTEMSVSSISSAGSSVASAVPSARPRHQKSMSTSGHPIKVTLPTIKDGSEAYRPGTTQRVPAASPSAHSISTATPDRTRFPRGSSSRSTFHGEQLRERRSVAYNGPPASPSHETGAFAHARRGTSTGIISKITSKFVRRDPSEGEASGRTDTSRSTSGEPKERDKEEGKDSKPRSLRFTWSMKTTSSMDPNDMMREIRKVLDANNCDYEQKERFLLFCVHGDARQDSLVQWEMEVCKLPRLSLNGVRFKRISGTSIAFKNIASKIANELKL
Description: as §1

SMILES	remaining activity at 0.1 µM [1]	remaining activity at 0.1 µM [2]	remaining activity at 0.1 µM [3]	remaining activity at 0.1 µM [4]	remaining activity at 0.1 µM [5]	remaining activity at 0.1 µM [6]	remaining activity at 0.5 µM ([1]; 500 nM)	remaining activity at 0.5 µM ([2]; 500 nM)	remaining activity at 0.5 µM ([3]; 500 nM)	remaining activity at 0.5 µM ([4]; 500 nM)	remaining activity at 0.5 µM ([5]; 500 nM)	remaining activity at 0.5 µM ([6]; 500 nM)	% Enzyme Activity (relative to DMSO controls) ([1]; 500 nM)	% Enzyme Activity (relative to DMSO controls) ([2]; 500 nM)	% Enzyme Activity (relative to DMSO controls) ([3]; 500 nM)	% Enzyme Activity (relative to DMSO controls) ([4]; 500 nM)	% Enzyme Activity (relative to DMSO controls) ([5]; 500 nM)	% Enzyme Activity (relative to DMSO controls) ([6]; 500 nM)
CCn1cc(-c2ccnc3[nH]c(-c4cccc(CN(C)C)c4)cc23)c(-c2ccc(NC(=O)N(C)C)cc2)n1 [GSK1070916]	97.2%	85.3%	101%	107%	108%	93%												
O=C(O)[C@]1(Cc2cccc(Nc3nccs3)n2)CC[C@@H](Oc2cccc(Cl)c2F)CC1 [MK-5108]	31.4%	95.4%	48.6%	85.9%	108%	117%	6.75%	76.7%	24.4%	108%	115%	98.6%						
O=C(c1cccc(Cl)c1F)N1CCN(Cc2cccc(Nc3nccs3)n2)CC1 [MK-8745]							85.6%	68%	84.2%	107%	103%	96.5%	84.37%	66.22%	84.08%	106.28%	102.40%	96.30%

— PMC4685510, “A Cell Biologist’s Field Guide to Aurora Kinase Inhibitors” (Frontiers in Oncology, 2015)
